In one assay the target is T1, chymotrypsinogen (Bos taurus, UniProt P00766).
T1 construct: α-Chymotrypsinogen A from bovine pancreas; purchased Sigma Aldrich; host or cells: bovine pancreas
In words: Photochemical labeling of chymotrypsinogen with pyridinium salt (General Procedure B, LC/MS). The assay is classed as biochemical, bovine. Particulars: trypsin digest. The procedure:
(§1) General Procedure B: Photochemical Irradiation of Peptides and Proteins: To a 2 mL Pyrex LC/MS vial (Thermo model #03-391-39) were sequentially added solutions containing the desired biomolecule, glutathione (GSH), pyridinium salt, and ammonium acetate (NH4OAc). The resulting solution was diluted to a final volume of 500 μL and then sparged using nitrogen for a minimum of 30 minutes prior to irradiation. The actively sparging solution was then placed in an EvoluChem™ PhotoRedOx Box photoreactor that was equipped with a Kessil, PR160 427 nm LED Lamp and was then irradiated (100% lamp intensity) for the designated time at room temperature while maintaining active sparging. The resultant reaction mixture was then analyzed directly by LC/MS. Analysis of labeling outcomes using LC/MS was performed either by extracted ion chromatogram intensities (method A) or by integrating the area under the peaks associated with peptide content (method B). These values were totaled, and estimated percentages were assigned according to relative intensities of peaks or ion counts.
Labeling of Chymotrypsinogen with pyridinium salt 2a (Chymotrypsinogen-2a Conjugate). […] The reaction mixture was directly analyzed by LC/MS using method A and was estimated to have proceeded with 90% conversion with a 20.7:8.3:1 mono:di:tri labeled ratio and 4% glutathionylation of all unlabeled and labeled protein content. […]

The test system of another assay is Leuprolide. In words: Photochemical labeling of leuprolide with pyridinium salt (General Procedure B, LC/MS). Particulars: 10 μM leuprolide, 100 μM pyridinium salt, 300 μM glutathione, 30 min. The format is biochemical. As for the experimental part:
as §1
Labeling of Leuprolide with Pyridinium Salt 2a (Leuprolide-2a Conjugate). […] The reaction mixture was analyzed directly by LC/MS using method B and was estimated to have proceeded with 91% conversion, a >20:1 mono:di labeled ratio, and 4% of +1 label+glutathionylation. […]

Entries after “also recorded” stand apart in the source; their conditions may differ. Structures can show the parent of a compound that is named as a salt.

As for `COC(=O)N(C)[n+]1c(C)cc(-c2ccc3cc(OC)ccc3c2)cc1C` [pyridinium salt 2a, 1-((methoxycarbonyl)(methyl)amino)-4-(6-methoxynapthalen-2-yl)-2,6-dimethylpyridin-1-ium tetrafluoroborate], the “Modified Trp” value on chymotrypsinogen was “Trp-215; also recorded: Trp-237”. In addition, the “+1 label+glutathionylation” value with Leuprolide is 4%.

Values taken from patent US20240262845A1, “PYRIDINIUM SALTS, METHODS OF MAKING, AND METHODS OF USE” (UNIVERSITY OF WYOMING, priority 2023, published 2024).
